Test results reported in a melting point compilation (Tetko et al.; mined from patent text by program, amines drawn as free bases though some values may be those of a salt).

| melting point | SMILES |
| --- | --- |
| 180 to 181 °C | CCOC(=O)C=Cc1ccc(C(C)(C)C)c(NC(=O)CC2c3ccccc3Oc3ccccc32)c1 |
| 189 to 190 °C | COC(=O)C1C(=O)Nc2ccc(Cl)cc2CC1c1ccc(OC)cc1 (stereo not given) |
| 105 to 112 °C | Cc1cc(N)nc(C)c1-c1ccccc1 |
| 144 °C | Cc1c(-c2ccccc2)oc(=O)n1C1CCN(CCc2ccccc2)CC1 |
| 54 to 57 °C | CC(=O)c1ccc(Sc2cccc(Br)c2)cc1 |
| 217 to 218 °C | COC(=O)c1ccc(C(=O)Nc2cc3c4c(c2)CCCC4CCC3)cc1 |
| 132 to 134 °C | O=C(Nc1c(C(O)(C(F)(F)F)C(F)(F)F)ccc2ccccc12)c1cc2ccccc2s1 |
| 236 to 238 °C | Nc1ccc2cnn(-c3ccnc(N[C@H]4CC[C@H](O)CC4)n3)c2c1 |
| 248 °C | O=C(Nc1cccc2c(OC(=O)c3c(Cl)cccc3Cl)ccnc12)c1c(Cl)cccc1Cl |
| 142 to 144 °C | CN1C(=O)C2(COc3cc4c(cc32)OCO4)c2ccccc21 (stereo not given) |
| 107 to 109 °C | O=C(O)c1cccc(COc2ccccc2Cl)c1COc1ccccc1Cl |
| 103 to 107 °C | O=C(O)[C@H](Cc1c[nH]c2ccccc12)NS(=O)(=O)c1ccc(N2CCC(c3ccccc3)CC2)cc1 |
| 225 to 227 °C | CC1(C)N(CC(N)=O)C(=O)CN1C(=O)CN1CCCC1=O |
| 132 to 135 °C | COc1ccc(NS(C)(=O)=O)cc1CN1CCC(=O)C(C(c2ccccc2)c2ccccc2)C1 (stereo not given) |
| 200 to 201 °C | CCOC(=O)c1c(C)n(C)cc(-c2ccc(Cl)cc2)c1=O |
| 68 °C | C#Cc1ccc2c(c1)C(CCOCCOCCOC)(CCOCCOCCOC)c1cc(C#C)ccc1-2 |
| 116 to 117 °C | COCCOc1ccc(CCC(=O)O)c(Oc2ncc(C(F)(F)F)cc2Cl)c1 |
| 130 to 170 °C | O=C(Nc1ccc(C(=O)N2Cc3cccn3Cc3ccccc32)cc1)c1ccc2[nH]ccc2c1 |
| 79 to 81 °C | CCCOc1cccc(C2(c3cccs3)N=C(N)N(C)C2=O)c1 (stereo not given) |
| 208 to 214 °C | CCOC(=O)c1cnc2sc(C(=O)Cc3ccccc3)c(C)c2c1O |
| 205 to 207 °C | O=C(O)c1ccc(-c2nn(Cc3ccccc3)c3ccccc23)cc1 |
| 94 to 95 °C | CCCCC1=C(/C=C/C(=O)Oc2ccc([N+](=O)[O-])cc2)CCc2cc(OC)ccc21 |
| 214 to 215 °C | O=C1CC(C(F)(F)F)CC(=O)N1c1cc(OS(=O)(=O)c2ccccc2)c(Cl)cc1F |

| melting point | SMILES |
| --- | --- |
| 40 to 42 °C | COc1ccc(Br)c(O)c1 |
| 199 to 200 °C | COC(=O)c1cc2c(S(=O)(=O)Cl)cc(Cl)c(Cl)c2o1 |
| 202 to 203 °C | O=C(NNS(=O)(=O)c1c(Cl)cccc1Cl)c1ccc2oc3ccccc3c2c1 |
| 104 to 106 °C | Cc1ccc(OCC(O)CNC(C)(C)C)c([N+](=O)[O-])c1[N+](=O)[O-] (stereo not given) |
| 209 to 213 °C | Cc1nc(-c2cccc(CN3C(=O)C4(COc5cc6c(cc54)CCO6)c4ccccc43)c2)no1 (stereo not given) |
| 189 °C | CN1N=C(c2ccc(Cl)cc2)CC1=O |
| 190 °C | O=C(C=Cc1ccccc1)c1cccc(NC(=O)c2ccn3c2CSC3c2cccnc2)c1 (stereo not given) |
| 70 to 74 °C | CCOP(=O)(OCC)C1=C(C(=O)OC(c2ccccc2)c2ccccc2)N2C(=O)C(NC(=O)COc3ccccc3)C2CC1 (stereo not given) |
| 141 to 142 °C | Fc1cccc(F)c1-c1nccc(-c2ccc(-c3ccc(C(F)(F)F)cc3)cc2)n1 |
| 87 to 88 °C | CC1(C(=O)O)c2ccccc2Oc2ccccc21 |
| 191 °C | Cc1ccc(-c2ccc(OC3SCC(O)C(O)C3O)cn2)cc1 (stereo not given) |
| > 245 °C | CN1CCN(Cc2ccc(-c3cc4c(Nc5cccc6[nH]ccc56)c(C#N)cnc4s3)cc2)CC1 |
| 116 to 117 °C | Cn1nc(-c2c(F)cccc2Cl)nc1-c1ccc(Oc2ccc(C(F)(F)F)cn2)c(Cl)c1 |
| 112 to 114 °C | CC(C)C(N)=C(C#N)C(N)=S |
| 92 to 93 °C | O=C(NCc1ccc([N+](=O)[O-])cc1)OCc1ccccc1 |
| 118 to 120 °C | CCOC(=O)C=Cc1cc(C=CS(=O)(=O)c2ccccc2)cc(Cc2cccnc2)c1 |
| 143 to 145 °C | C=Cc1cc(C=Cc2cc(C(C)(C)C)cc(C(C)(C)C)c2)cc(C=Cc2cc(C(C)(C)C)cc(C(C)(C)C)c2)c1 |
| 91.3 °C | FC(F)Oc1cccc(C=C2c3ccccc3CCc3ccccc32)c1 |
| 127 to 130 °C | CCCC(=O)Nc1c(C(=O)c2cccc(C)c2)[nH]c2cc(Cl)ccc12 |
| 112 to 113 °C | COC(=O)C(=O)Cc1ccc(SC)cc1 |
| 180 °C | C#CCOc1cc(-n2nc(C)ccc2=O)c(F)cc1C#N |
| 165 to 167 °C | CC(C)Cn1c(CCCCNC(=O)OC(C)(C)C)nc2c(N)nc3ccccc3c21 |
| 227 to 229 °C | O=C(N[C@@H](Cc1ccc(Cl)cc1)C(=O)N1CCC(O)CC1)c1cc2cc(Cl)ccc2[nH]1 |

| melting point | SMILES |
| --- | --- |
| 97 to 98.5 °C | CC1(c2nn(-c3c(Cl)cc(C(F)(F)F)cc3Cl)cc2C#N)CC1(Cl)Cl (stereo not given) |
| 121 °C | CCOC(=O)C(C)N(c1ccc(S(=O)(=O)c2ccccc2)cc1C(F)(F)F)S(C)(=O)=O (stereo not given) |
| 163 to 165 °C | Cc1cnc2c(c1C)CCCC2C(N)=S (stereo not given) |
| 153 °C | NC(=O)C=Cc1cccs1 |
| 130 to 132 °C | COc1cc(C(=O)C#CC(=O)O)cc(OC)c1OC |
| 63 to 65 °C | COc1ccc(C2(C#Cc3cccc(NC(=O)C(F)(F)F)c3)CCCC(=O)C2)cc1OC1CCCC1 (stereo not given) |
| 155 °C | CC1COC(c2ccccc2)(c2ccc(N)c([N+](=O)[O-])c2)O1 (stereo not given) |
| 195 °C | CC1=C(C(=O)OC(C)C)C(c2cccc([N+](=O)[O-])c2)C(C(=O)O)=NN1 (stereo not given) |
| 150 to 151 °C | C[C@@H]1NC(=O)[C@H]2Cc3c([nH]c4ccccc34)[C@@H](c3ccc4occc4c3)N2C1=O |
| > 320 °C | O=C(O)CCCOc1ccc2nc3[nH]c(=O)[nH]c3cc2c1 |
| 186 to 191 °C | COc1cccc(S(=O)(=O)c2cccc(N)c2C#N)c1 |
| 296 to 299 °C | COc1nc(C)c(N2CCCn3c2nc2cccc(C(O)C(F)(F)F)c23)c(C)n1 (stereo not given) |
| 74 to 75 °C | CCC1(C)CC(=O)C(C(=O)Nc2ccc(Cl)c(Cl)c2)C(=O)C1 (stereo not given) |
| > 260 °C | Cc1cc(=O)n(-c2cc3c(cc2F)sc(=O)n3CC(N)=O)c(=O)n1C |
| 125 to 127 °C | CN(C)C(=Cc1ccccc1[N+](=O)[O-])C(=O)CBr |
| 130 to 134 °C | CCc1cccc(CNC[C@@H](O)[C@H](Cc2cc(F)cc(F)c2)NC(=O)N2CCC(CS(C)(=O)=O)CC2)c1 |
| 138 to 140 °C | COC(=O)C[C@H](C(=O)OC)N1C(=O)[C@@H](N2C(=O)c3ccccc3C2=O)[C@H]1C=Cc1ccccc1 |
| 303 to 317 °C | Cc1[nH]cc2c(=O)n(-c3ccc(F)cc3)nc-2c1-c1ccccc1 |
| 169 to 171 °C | CCOC(=O)C1=C(C)N(C(C)=O)C(c2csc(C)n2)=NC1c1ccc(Cl)cc1 (stereo not given) |
| 137 to 139 °C | COc1ccc(C2=NN(c3ccc(C(=O)N4CCN(c5c(Cl)cncc5Cl)CC4)cc3)C(=O)[C@@H]3CC=CC[C@H]23)cc1OC |
| 200 to 207 °C | COC(=O)c1ccc2c(c1)C(=O)N(c1ccccc1)C2=O |
| 157 to 158 °C | O=S(=O)(c1ccc(F)cc1)C(c1cc(F)ccc1F)c1cc(NCCO)ncc1Cl (stereo not given) |
| 196 °C | CCOC(=O)C1=CC(C(=O)c2cc(Cl)c(C)cc2O)=CN2CCc3c([nH]c4ccccc34)C12C(=O)OCC (stereo not given) |

| melting point | SMILES |
| --- | --- |
| 116 to 118 °C | Cn1nnnc1CC(O)(c1ccc(F)cc1)c1ccc(F)cc1 |
| 70 to 73 °C | CC(=O)O/N=C1\CCc2ccccc2C1=Cc1ccc(S(C)(=O)=O)cc1 |
| 122 to 123 °C | O=S(=O)(Nc1ccc(C(F)(F)F)cc1Cl)c1cc(C(F)(F)F)ccc1Cl |
| 159 to 162 °C | CON1C=C2N=NC3=C(N2C1)N(C(C)C)CC=C3 |
| 206 to 208 °C | O=C(O)c1ccc(NCc2ccc(Cl)cc2)cc1 |
| 133 to 135 °C | CCOCn1c(Br)c(Br)c(S(=O)(=O)C(F)(F)F)c1-c1ccc(Cl)cc1 |
| 135 to 136 °C | CC(C)(Oc1ccc(CCC(=O)c2ccc(-c3ccc(OC(F)(F)F)cc3)s2)c(Cl)c1Cl)C(=O)O |
| 194 to 197 °C | O=C1N(Cc2nnc(Cl)s2)c2ccccc2C12COc1cc3c(cc12)OCO3 (stereo not given) |
| 265 to 267 °C | CS(=O)(=O)c1cccc(CNC(=O)c2nc3scc(COCc4ccc(C(=O)O)cc4)c3c(=O)[nH]2)c1 |
| 174 to 175 °C | CCOC(=O)c1cnc2cn[nH]c2c1Nc1ccsc1 |
| 112 °C | CCCCOc1cc(/C=C(\OCC)C(=O)O)ccc1OCCc1ccc(N(C)S(C)(=O)=O)cc1 |
| > 250 °C | Cc1ccccc1NC(=O)N[C@H]1C[C@@](N)(C(=O)O)[C@@H]2[C@@H](C(=O)O)[C@@H]21 (relative stereo) |
| 128 °C | COc1ccc(C(=O)Nc2ccccc2C(O)c2ccccn2)cc1 (stereo not given) |
| 131 °C | COc1ccc(C#CC(C)N(O)C(N)=O)o1 (stereo not given) |
| 111 to 112 °C | C=CCS(=O)c1c(O)cc(C)oc1=O (stereo not given) |
| 161 to 162 °C | CC(=O)N(C)c1ccc(C(=O)N2CCN(CCc3ccc(Br)cc3)CC2)cc1 |
| 195 to 198 °C | C#CCOc1ccc(C(=O)O)c(C2=NC(=O)C(C)(C(C)C)N2)n1 (stereo not given) |
| 95 to 101 °C | CC(C)n1c(C=O)c(-c2ccc(F)cc2)c2cccnc21 |
| 177 °C | CC(C)(C)c1cccc(S(=O)(=O)n2c(Cc3ccc(C(=O)O)cc3F)cc3cc(C(F)(F)F)ccc32)c1 |
| 157 °C | O=C(CC(=O)C(F)(F)F)c1ccc(-c2ccco2)cc1 |
| 134 to 137 °C | N#Cc1ccc(C(CC(=O)O)N2C(=O)c3ccccc3C2=O)cc1 (stereo not given) |
| 240 to 242 °C | O=C1CCC(N2C(=O)c3cccc(NCC(=O)NC4CC4)c3C2=O)C(=O)N1 (stereo not given) |
| 112 to 117 °C | OCCCCn1ccc(NC(=S)Nc2ccccc2)n1 |

| SMILES | melting point |
| --- | --- |
| CCN1C=C(C(=O)O)C(=O)CC1c1cccnc1 (stereo not given) | 197 to 199 °C |
| O=Cc1ncc2n1-c1ccc(Cl)cc1C(c1ccccc1F)=NC2 | 182 to 183 °C |
| COC(=O)CSC(c1ccccc1Cl)c1ccccc1Cl | 90 to 92 °C |
